The source of these data is PubChem BioAssay (NCI).

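Step 1: Grow cells in 96-well plates. Step 2: Expose to compound for 48 hours at 5 concentrations. Step 3: Interpolate endpoints linearly; if unreached, use highest concentration. Here, GI50 denotes the concentration required for 50% inhibition of growth. TGI marks complete inhibition of growth.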 Some results are limits rather than exact numbers.

Some test systems named below: ACHN renal; HCC-2998 colon; HCT-116 colon; NCI-H23 lung; OVCAR-4 ovarian; SF-539 CNS; SK-MEL-2 melanoma; SNB-75 CNS; DU-145 prostate; T-47D breast.
Common to all, as to experiment: DTP human tumour cell line panel, 48 h

In the case of `O=C(c1ccc2c3c(ccc(C(=O)C(F)(F)F)c13)CC2)C(F)(F)F`, the TGI with ACHN renal, in the assay with HCC-2998 colon, with HCT-116 colon, in the assay on NCI-H23 lung, with OVCAR-4 ovarian and in the assay with SF-539 CNS was above 100 µM each time. The TGI with SK-MEL-2 melanoma and with SNB-75 CNS was above 100 µM throughout.
Turning to `ClC[Si]12OCCN(CCO1)CCO2`, the TGI with ACHN renal, with HCC-2998 colon, with HCT-116 colon, in the assay on NCI-H23 lung, in the assay on SF-539 CNS and in the assay on SK-MEL-2 melanoma was above 100 µM each time. In the assay with SNB-75 CNS, this compound gave a TGI above 100 µM.
Turning to `Cc1cc2c(cc1C)[n+](=O)c(C(=O)/C=C/c1ccccc1Cl)c(C)n2[O-]`, the TGI in the assay with ACHN renal is 58.1 µM; in the assay with HCC-2998 colon, 34.2 µM; in the assay with NCI-H23 lung it was 46.7 µM; in the assay on OVCAR-4 ovarian it was above 100 µM; in the assay on SF-539 CNS, 42.6 µM; in the assay on SK-MEL-2 melanoma it was 68.7 µM. The same compound displayed a TGI in the assay with SNB-75 CNS of 47.5 µM.
With `CN(C)/C=N/c1nc2ncn(CCOC(=O)c3ccccc3)c2c(=O)[nH]1`, the TGI in the assay with ACHN renal, in the assay with HCT-116 colon, with OVCAR-4 ovarian, with SF-539 CNS, in the assay on SK-MEL-2 melanoma and with SNB-75 CNS was above 100 µM each time.
Regarding `CN(C)CCC1(C2=CCCC2)CC/C(=C\c2ccccc2)C1=O` (stereo not drawn), the TGI with ACHN renal is 28.6 µM; with HCC-2998 colon, 29.2 µM; in the assay on HCT-116 colon it was 35.4 µM; in the assay with NCI-H23 lung, 46.9 µM; with OVCAR-4 ovarian it was 31 µM; in the assay with SF-539 CNS it was 30.5 µM. For the same compound, the TGI amounted to 31 µM with SK-MEL-2 melanoma and 35.9 µM with SNB-75 CNS.
For the compound `CC(C)CC(=O)NS(=O)(=O)c1ccccc1`, the TGI in the assay with ACHN renal, in the assay with HCC-2998 colon, in the assay on HCT-116 colon, with NCI-H23 lung, in the assay with OVCAR-4 ovarian and in the assay with SF-539 CNS was above 100 µM in each case. In addition, the TGI in the assay on SK-MEL-2 melanoma and in the assay with SNB-75 CNS was above 100 µM in each case.
`CC1(C)OC(=O)C(=C2CC(c3ccccc3)c3ccccc32)C(=O)O1` (stereo not drawn): the TGI with ACHN renal, with HCC-2998 colon, with HCT-116 colon, in the assay with NCI-H23 lung, in the assay on OVCAR-4 ovarian and in the assay on SF-539 CNS was above 100 µM in each case. The TGI in the assay with SNB-75 CNS was above 100 µM.
For `Cc1cc2c(c(N)c1C)C(=O)c1ccccc1C2=O`, the TGI in the assay with ACHN renal is above 100 µM; with HCC-2998 colon it was above 100 µM; in the assay on HCT-116 colon, 50.4 µM; in the assay on OVCAR-4 ovarian it was 41.4 µM; in the assay on SF-539 CNS, 31.5 µM; in the assay on SK-MEL-2 melanoma it was above 100 µM. In the assay on SNB-75 CNS, this compound gave a TGI of 39.8 µM.
Take `COc1cc(C2C(C#N)=C(N)Oc3cc(O)ccc32)cc(OC)c1OC` (stereo not drawn): the GI50 in the assay with ACHN renal is 0.882 µM; in the assay with DU-145 prostate it was 0.659 µM; with HCC-2998 colon, 0.964 µM; in the assay on HCT-116 colon, 0.428 µM; in the assay on NCI-H23 lung it was 0.62 µM; with OVCAR-4 ovarian it was 2.14 µM. The GI50 in the assay with SF-539 CNS is 0.333 µM; in the assay on SK-MEL-2 melanoma it was 0.496 µM; in the assay with SNB-75 CNS, 0.271 µM. For the same compound, the TGI in the assay with ACHN renal was above 100 µM; in the assay on DU-145 prostate, above 100 µM; in the assay on HCC-2998 colon, above 54.8 µM; in the assay on HCT-116 colon, above 100 µM; in the assay on NCI-H23 lung, above 100 µM; in the assay with OVCAR-4 ovarian, above 100 µM. Further, the TGI with SK-MEL-2 melanoma and in the assay with SNB-75 CNS was above 100 µM throughout.
Take `CCSc1nc2n(c(=S)n1)CCN2C`: the TGI came to 60.6 µM in the assay on ACHN renal; 30.3 µM in the assay on HCC-2998 colon; 33.7 µM in the assay on HCT-116 colon; 44.5 µM in the assay on OVCAR-4 ovarian; 58.9 µM in the assay with SF-539 CNS; 41.7 µM with SK-MEL-2 melanoma. This compound registered a TGI in the assay on SNB-75 CNS of 30.8 µM.
Consider `CC1=C(c2cc(C(=O)Nc3nccs3)nc(NC#N)n2)Sc2ccccc2N1`, for which the TGI in the assay on ACHN renal, with HCT-116 colon, in the assay on NCI-H23 lung, with OVCAR-4 ovarian, in the assay with SF-539 CNS and in the assay with SK-MEL-2 melanoma was above 100 µM each time. The same compound came in with a concentration for total growth inhibition (TGI) in the assay on SNB-75 CNS above 100 µM.
Regarding `O=C([O-])c1ccccc1Nc1ccccc1[O-].[Ni+3].[OH3+].[OH3+].[OH3+]`, the GI50 with ACHN renal, with HCC-2998 colon, in the assay on HCT-116 colon, in the assay on NCI-H23 lung, in the assay on OVCAR-4 ovarian and in the assay with SF-539 CNS was above 100 µM in each case. Also, the GI50 in the assay on SK-MEL-2 melanoma was above 100 µM. The TGI with ACHN renal, with HCC-2998 colon, in the assay with HCT-116 colon, in the assay with NCI-H23 lung, in the assay on OVCAR-4 ovarian and with SF-539 CNS was above 100 µM in each case. This compound yielded a TGI in the assay with SK-MEL-2 melanoma above 100 µM.
In the case of `CC1CCC23COC(=O)C2C(O)CCC3C1(C)CC(O)c1ccoc1` (stereo not drawn), the TGI in the assay on ACHN renal, in the assay on HCC-2998 colon, with HCT-116 colon, in the assay on NCI-H23 lung, in the assay on OVCAR-4 ovarian and in the assay with SF-539 CNS was above 100 µM each time. For the same compound, the TGI in the assay with SK-MEL-2 melanoma and with SNB-75 CNS was above 100 µM in each case.
With `CCN(CC(COc1ccc2c(c1)[n+]([O-])nc(N)[n+]2[O-])OC(C)=O)C(C)=O` (stereo not drawn), the TGI in the assay on ACHN renal, in the assay with HCT-116 colon, in the assay on NCI-H23 lung, in the assay with OVCAR-4 ovarian, with SF-539 CNS and with SK-MEL-2 melanoma was above 100 µM throughout. The concentration for total growth inhibition (TGI) with SNB-75 CNS and in the assay on T-47D breast was above 100 µM throughout.
On to `O=C1C(N2C(=O)c3ccccc3C2=O)CN1C(COCc1ccccc1)c1ccc(OCc2ccccc2)cc1` (stereo not drawn), for which the TGI in the assay on ACHN renal, in the assay on HCC-2998 colon, in the assay with HCT-116 colon, in the assay with NCI-H23 lung, in the assay on OVCAR-4 ovarian and in the assay with SF-539 CNS was above 100 µM throughout. Further, in the assay with SNB-75 CNS, the TGI is above 100 µM.
Turning to `O=c1[nH]c(/C=C(\O)c2ccncc2)nc2ccccc12`, the TGI in the assay on ACHN renal, in the assay on HCC-2998 colon, with HCT-116 colon, with NCI-H23 lung, in the assay on OVCAR-4 ovarian and in the assay with SK-MEL-2 melanoma was above 100 µM each time. Moreover, the TGI in the assay with SNB-75 CNS was above 100 µM.
